Experimental data taken from US20190059375A1, “SYNERGISTIC FUNGICIDAL COMPOSITION FOR CONTROLLING PLANT DISEASES” (Sumitomo Chemical Company, Limited, priority 2016, published 2019).

Experiments:
[1] = tested on: Septoria leaf blotch (Mycosphaerella graminicola); assay: Test Example 3: growth of Septoria leaf blotch in YBG medium, microtiter plate, absorbance at 550 nm; assay type: cell-based; conditions: single use, concentration in medium 0.005 ppm; 18° C., four days
Method: Each of the present compound 1 or the present compound 2 was dissolved into dimethyl sulfoxide such that each concentration of these compounds was adjusted to one hundred fifty times as much as the concentration indicated in the below-mentioned Table 2. The resultant agent solution was dispensed into each microtiter plate (with 96 wells) in 1 μl portion thereof per well. […] The plate was cultivated at 18° C. for four days, thereby allowing Septoria leaf blotch (Mycosphaerella graminicola) to undergo proliferation, and the absorbance at 550 nm of each well of the microtiter plate was then measured to examine a degree of growth of Septoria leaf blotch (hereinafter referred to as “treated group”).
Whereas, Septoria leaf blotch was proliferated similarly to the case of the treated group except that dimethyl sulfoxide was used instead of the agent solution, and the degree of the growth was examined (hereinafter referred to as “untreated group”). The efficacy was calculated from each of the obtained degree of growth of the treated group and the untreated group respectively by the following “Equation 1”. […]

[2] = tested on: Brown rust (Puccinia recondita); assay: Test Example 4: foliar spray on wheat, Brown rust lesion area; assay type: in vivo, Puccinia recondita on wheat (cultivar. Shirogane); conditions: single use, foliar spray one day before inoculation, lesion area after ten days
Method: Five (5) parts of the present compound 1, 35 parts of a mixture of white carbon and ammonium polyoxyethylene alkyl ether sulfate (the weight ratio of 1:1) and […] of water were mixed, and the mixture was then finely-ground by a wet grinding method to obtain a flowable comprising the present compound 1. Separately, the flowable comprising the present compound 2 was prepared according to the above-mentioned similar method except that the present compound 2 was used instead of the present compound 1.
Each of the flowable comprising the present compound 1 and the flowable comprising the present compound 2 was diluted with water and if necessary, the resultant dilute solutions were mixed each other such that each concentration of the respective compounds in the dilution solution was adjusted to the concentration indicated in Table 3, to prepare the dilution solutions, respectively.
A plastic pot was filled with soil, and thereto wheat (cultivar. Shirogane) was seeded, and the plants were grown in a greenhouse for ten days. The above-mentioned dilution solutions were sprayed to foliar parts so as to adhere adequately onto the surfaces of leaves of the above wheats. After spraying the dilute solution, the plants were air-dried, and one day after the application, an aqueous suspension of uredospores of Brown rust (Puccinia recondita) was inoculated by spraying thereto. After the inoculation, the plants were placed at 27° C. under humid condition for one day, and were then cultivated under lighting for ten days, and a lesion area was examined (hereinafter referred to as “lesion area of treated group”).
Whereas, wheats were cultivated similarly to the treated group except that no foliage application of the above-mentioned agent solution was done, and Brown rust were inoculated, and the lesion area thereof was examined (hereinafter referred to as “lesion area of the untreated group”).
From each of the lesion area of the treated group and the untreated group, respectively, the efficacy of the treated group was calculated by the following Equation 2. […]

Row | SMILES | Efficacy (%) [1] | Efficacy (%) ([2]; concentration in agent solution 0.0001 ppm) | Efficacy (%) ([2]; concentration in agent solution 0.01 ppm) | Efficacy (%) ([2]; concentration in agent solution 0.001 ppm)
1 | CNC(=O)C(OC)c1ccccc1COc1cc(C)ccc1C (stereo not shown) [Present compound 1] | 20% | 22% | 46% | –
2 | CC1CC(C)(C)c2c(F)ccc(NC(=O)c3cn(C)nc3C(F)F)c21 (stereo not shown) [Present compound 2] | – | – | – | 15%
